Measured values published in paper PMC10419083, “Actions of a Novel Bacterial Topoisomerase Inhibitor against Neisseria gonorrhoeae Gyrase and Topoisomerase IV: Enhancement of Double-Stranded DNA Breaks” (International Journal of Molecular Sciences, 2023).

Biological target: T1, human topoisomerase IIα (Homo sapiens, UniProt P11388)
T1 construct: gene TOP2A; recombinant wild-type, expressed in Saccharomyces cerevisiae and purified
Test: DNA cleavage assay, pBR322, agarose gel
Format: biochemical
Conditions: single-stranded and double-stranded DNA break induction; 300 nM enzyme, 25 mM MgCl2, 500 mM KCl, pH 7.9, 37 °C, 10 min

T1 sequence (P11388 whole entry): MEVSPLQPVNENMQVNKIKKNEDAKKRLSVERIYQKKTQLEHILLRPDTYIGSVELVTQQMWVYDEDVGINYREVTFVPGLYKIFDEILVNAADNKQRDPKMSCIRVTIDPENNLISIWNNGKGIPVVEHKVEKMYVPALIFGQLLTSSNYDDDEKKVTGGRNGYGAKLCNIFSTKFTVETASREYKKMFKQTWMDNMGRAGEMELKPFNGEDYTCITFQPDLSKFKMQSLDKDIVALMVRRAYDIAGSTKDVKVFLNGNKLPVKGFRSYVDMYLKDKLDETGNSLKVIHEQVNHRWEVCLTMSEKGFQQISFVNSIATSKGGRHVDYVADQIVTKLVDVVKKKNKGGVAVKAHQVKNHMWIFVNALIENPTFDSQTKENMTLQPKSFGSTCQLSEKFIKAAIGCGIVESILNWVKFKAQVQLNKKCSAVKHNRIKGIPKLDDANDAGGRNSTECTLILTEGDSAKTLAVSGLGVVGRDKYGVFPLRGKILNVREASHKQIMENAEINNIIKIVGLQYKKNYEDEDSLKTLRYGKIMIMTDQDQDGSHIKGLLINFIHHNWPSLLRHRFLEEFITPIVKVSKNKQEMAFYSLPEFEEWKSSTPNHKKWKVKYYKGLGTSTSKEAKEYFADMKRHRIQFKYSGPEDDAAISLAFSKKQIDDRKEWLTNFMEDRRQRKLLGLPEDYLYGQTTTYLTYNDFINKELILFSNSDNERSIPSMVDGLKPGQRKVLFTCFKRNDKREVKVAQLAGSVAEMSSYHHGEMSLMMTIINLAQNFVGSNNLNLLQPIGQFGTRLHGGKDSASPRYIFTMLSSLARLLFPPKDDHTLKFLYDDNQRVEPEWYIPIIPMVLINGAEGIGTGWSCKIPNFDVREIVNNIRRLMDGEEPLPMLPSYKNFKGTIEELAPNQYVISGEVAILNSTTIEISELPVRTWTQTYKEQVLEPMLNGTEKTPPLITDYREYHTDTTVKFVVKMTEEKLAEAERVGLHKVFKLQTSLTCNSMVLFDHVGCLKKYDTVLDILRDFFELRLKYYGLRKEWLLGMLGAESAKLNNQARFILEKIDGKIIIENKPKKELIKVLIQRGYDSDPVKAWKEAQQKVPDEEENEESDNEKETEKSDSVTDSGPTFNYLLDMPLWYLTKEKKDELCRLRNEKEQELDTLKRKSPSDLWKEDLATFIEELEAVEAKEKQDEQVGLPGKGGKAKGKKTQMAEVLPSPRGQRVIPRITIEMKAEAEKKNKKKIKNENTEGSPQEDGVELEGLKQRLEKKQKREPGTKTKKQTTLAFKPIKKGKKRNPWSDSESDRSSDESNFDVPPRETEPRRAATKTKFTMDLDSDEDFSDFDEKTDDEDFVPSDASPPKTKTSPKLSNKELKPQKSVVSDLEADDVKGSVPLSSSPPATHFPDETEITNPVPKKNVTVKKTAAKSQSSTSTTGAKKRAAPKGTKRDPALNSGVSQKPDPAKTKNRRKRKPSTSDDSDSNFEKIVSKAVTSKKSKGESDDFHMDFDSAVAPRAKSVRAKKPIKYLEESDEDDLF

COc1ccc2nccc(CC[C@H]3OC[C@H](NC(=O)c4ccc5c(c4)NC(=O)CO5)CO3)c2c1 [OSUAB-185]
CC50: reasonable activity against the human type II enzyme, with CC50 values in the low µM
